Laboratory results reported in patent US20220280473A1, “COMPOSITIONS AND METHODS FOR MODULATING EPITHELIAL-MESENCHYMAL TRANSITION” (AUCKLAND UNISERVICES LIMITED, priority 2021, published 2022).
Entries after “also recorded” stand apart in the source; their conditions may differ.

Key:
Format in all cases: cell-based, Human
ARPE-19 cells [1] = assay: RPE65 expression by quantitative immunocytochemistry after HG+Cyt insult
Procedure: (§1) Human adult retinal pigment epithelial cells (ARPE-19; American Type Culture Collection, USA) were cultured in Dulbecco's modified Eagle medium F-12 (DMEM-F12; Thermofisher Scientific Inc., USA) supplemented with 10% foetal bovine serum ([…]: Invitrogen, USA) and a 1× antibiotics and antimycotics mixture (AA, 100× stock) at 37° C. in a humidified 5% CO2 incubator. Cells were grown in T75 flasks, and the medium was changed twice per week until confluent.
(§2) At passages 15-18, cells were plated at 2.5×10^5 cells/mL in 8-well chamber slides for immunohistochemical studies, 6-well plates with inserts for fluorescein isothiocyanate (FITC)-dextran dye leak and transepithelial electrical resistance (TEER) measurements, and 24-well plates for cell migration studies. Once confluent, cells were treated as three separate groups: untreated, insult of HG+Cyt, or HG+Cyt insult plus tonabersat treatment (HG+Cyt+Ton). […]
(§3) Fluorescence images were taken on an Olympus FV1000 confocal laser scanning microscope (Olympus, Japan), and processed using Olympus FV10-ASW viewer and ImageJ software (Version 1.52a, National Institute of Health, USA). […] RPE65 and α-SMA expression was quantified by measuring the mean fluorescence intensity (MFI). […] The ratio of α-SMA to RPE65 expression was additionally calculated by (α-SMA MFI/RPE65 MFI). ZO-1 was qualitatively assessed for changes in localisation.

ARPE-19 cells [2] = assay: α-SMA expression by quantitative immunocytochemistry after HG+Cyt insult; conditions: for α-SMA to RPE65 expression ratio / α-SMA expression (mean fluorescence intensity, compared to untreated levels): ARPE-19, HG+Cyt insult plus tonabersat 100 μM; for α-SMA to RPE65 expression ratio: α-SMA MFI/RPE65 MFI
Procedure: as §1
(§4) At passages 15-18, cells were plated at 2.5×10^5 cells/mL in 8-well chamber slides for immunohistochemical studies, 6-well plates with inserts for fluorescein isothiocyanate (FITC)-dextran dye leak and transepithelial electrical resistance (TEER) measurements, and 24-well plates for cell migration studies. Once confluent, cells were treated as three separate groups: untreated, insult of HG+Cyt, or HG+Cyt insult plus tonabersat treatment (HG+Cyt+Ton). The insult of HG+Cyt was used to induce DR-like conditions as has been previously described (Kuo et al., 2020; Mugisho et al., 2018a, 2018b), and consisted of a combination of 32.5 mM HG and the pro-inflammatory cytokines; tumour necrosis factor alpha (TNF-α; 10 ng/mL; Peprotech, USA) and interleukin-1 beta (IL-1β; 10 ng/mL; Peprotech, USA).
(§5) Tonabersat (MedChemExpress, NJ, USA) was administered at a concentration of 100 μM to cells at the same time as the HG+Cyt insult (HG+Cyt+Ton). To achieve this tonabersat was dissolved in 100% DMSO at a concentration of 100 mM and then 1 μl of the stock solution was added to 999 μl of culture medium containing HG+Cyt. Cells were incubated under treatment conditions for 72 h unless otherwise stated. Brightfield images were taken using a light microscope at 24, 48, and 72 h post-treatment. All experiments were repeated thrice.
Cells were fixed with 4% paraformaldehyde for 10 min and permeabilized with 0.1% Triton X-100 in phosphate-buffered saline (PBS) for 10 min. Cells were blocked in normal goat or horse serum for 1 h, and then incubated overnight at 4° C. with either mouse anti-RPE65 (1:1000; Abcam, UK) and goat anti-α-SMA (1:200; Abcam, UK), or rabbit anti-ZO-1 (1:1000; Invitrogen, USA). Two 10 min washes followed in PBS, after which cells were incubated at room temperature for 2 h with their respective secondary antibodies; donkey anti-rabbit Alexa-488 (1:500; Abcam, UK), donkey anti-mouse Alexa-488 (1:500; Abcam, UK) or donkey anti-goat Cy3 (1:500; Invitrogen, USA). Cells were washed in PBS twice for 10 min. Cell nuclei were stained with DAPI (1:1000; Sigma-Aldrich, USA), and slides were mounted using Citifluor™ anti-fade reagent and sealed with nail varnish.
Fluorescence images were taken on an Olympus FV1000 confocal laser scanning microscope (Olympus, Japan), and processed using Olympus FV10-ASW viewer and ImageJ software (Version 1.52a, National Institute of Health, USA). Five images were taken from a single chamber per condition and repeated in three separate experiments. RPE65 and α-SMA expression was quantified by measuring the mean fluorescence intensity (MFI). Data is presented relative to the respective untreated group. The ratio of α-SMA to RPE65 expression was additionally calculated by (α-SMA MFI/RPE65 MFI). ZO-1 was qualitatively assessed for changes in localisation.

ARPE-19 cells [3] = assay: Cell migration (scrape wound) assay after HG+Cyt insult; conditions: ARPE-19, HG+Cyt plus tonabersat 100 μM
Procedure: as §1, §4
Tonabersat (MedChemExpress, NJ, USA) was administered at a concentration of 100 μM to cells at the same time as the HG+Cyt insult (HG+Cyt+Ton). […]
To determine cell migration rates following 72 h treatment, a scrape wound was created in the cell monolayer by drawing a 1000 μL pipette tip vertically over the cells by hand, and the width of the wound measured over time. […] The width of the scrape was measured with the line tool and “measure” feature in ImageJ at eight regular intervals (guided using a grid overlay) within each image. […] The scrape wound width was quantified relative to the post-scrape width at time 0 h and converted to a percentage scrape closure for each condition. […]

ARPE-19 cells [4] = assay: ZO-1 tight junction localisation, immunocytochemistry; conditions: ARPE-19, HG+Cyt insult plus tonabersat 100 μM, qualitative
Procedure: as §1, §2, §3

ARPE-19 cells [5] = assay: Cx43 cell membrane localization, immunolabelling; conditions: ARPE-19, HG+Cyt insult plus tonabersat, qualitative
ARPE-19 cells [6] = assay: Transepithelial electrical resistance (TEER) of cell monolayer; conditions: ARPE-19 monolayer, HG+Cyt plus tonabersat 100 μM
Procedure: as §1, §4, §5
To determine the effect of conditions on the TEER of the cell monolayer, cells were again seeded into the inserts of 6-well Transwell® plates (Corning Incorporated, USA), with additional medium in the base. […] TEER values were quantified relative to the 0 h values for each respective group. […]

ARPE-19 cells [7] = assay: TGF-β1 and TGF-β2 release after HG+Cyt insult; conditions: HG+Cyt insult plus tonabersat

CC(=O)c1ccc2c(c1)[C@H](NC(=O)c1ccc(F)c(Cl)c1)[C@H](O)C(C)(C)O2 [tonabersat, N-[(3S,4S)-6-acetyl-3-hydroxy-2,2-dimethyl-3,4-dihydrochromen-4-yl]-3-chloro-4-fluorobenzamide]
RPE65 expression (mean fluorescence intensity relative to untreated group) (ARPE-19 cells [1]; ARPE-19, HG+Cyt insult plus tonabersat 100 μM, 72 h, comparison with HG+Cyt and untreated groups, listed as HG+Cyt+Ton): not being significantly different to either group; also recorded: no statistically significant difference | RPE65 expression decrease following HG+Cyt insult (immunolabelling images) (ARPE-19 cells [1]; ARPE-19, co-application of tonabersat, FIG. 2 qualitative): prevented | α-SMA to RPE65 expression ratio (ARPE-19 cells [2]; 24 h): 1.1 | α-SMA expression (mean fluorescence intensity, compared to untreated levels) (ARPE-19 cells [2]; 72 h): 75.5±8.4% | α-SMA expression (mean fluorescence intensity, compared to untreated levels) (ARPE-19 cells [2]; 72 h, listed as HG+Cyt+Ton): significantly reduced | α-SMA to RPE65 expression ratio (ARPE-19 cells [2]; 72 h): 0.8 | α-SMA expression increase and striation following HG+Cyt insult (immunolabelling images) (ARPE-19 cells [2]; ARPE-19, addition of tonabersat, FIG. 2 qualitative): changes were prevented | scrape wound percentage closure (ARPE-19 cells [3]; 4 h post-scrape vs 0 h scrape width): no significant difference in percentage closure | scrape wound percentage closure (ARPE-19 cells [3]; 24 h post-scrape relative to 0 h width): 33.8±9.6% | scrape wound percentage closure (ARPE-19 cells [3]; 24 h post-scrape relative to 0 h width, listed as HG+Cyt+Ton): reduction in scrape wound closure | ZO-1 cell membrane localization (ARPE-19 cells [4]): maintained ZO-1 localization at the cell membrane; also recorded: prevented loss of ZO-1 cell membrane localization | Cx43 cell membrane localization (ARPE-19 cells [5]): maintained Cx43 localization | TEER relative to 0 h value (ARPE-19 cells [6]; 24 h): 99.5±1.2% | TEER relative to 0 h value (ARPE-19 cells [6]; 48 h): 114.9±3.2% | TEER relative to 0 h value (ARPE-19 cells [6]; 72 h): 97.7±1.1% | HG+Cyt induced TGF-β2 release (ARPE-19 cells [7]; 24 h): prevented HG+Cyt induced TGF-β2 release back to untreated levels | TGF-β1 and 2 levels (ARPE-19 cells [7]; 72 h): no significant differences between all groups
